From article PMC8213057, “Targeting ALK2: An Open Science Approach to Developing Therapeutics for the Treatment of Diffuse Intrinsic Pontine Glioma” (Journal of Medicinal Chemistry, 2020)
Where “and” joins values, the source holds several entries; their conditions need not be identical. Identical values can stand only once.

Tests used:
ACK1 = ACK1 (Homo sapiens, UniProt Q07912); settings: 1 μM; Run 1, Run 2
CDK1/cyclin B = CDK1/cyclin B (Homo sapiens, UniProt P06493); settings: 1 μM; Run 1, Run 2
CDK16/cyclin Y (PCTAIRE) = CDK16/cyclin Y (PCTAIRE) (Homo sapiens, UniProt Q00536); settings: 1 μM; Run 1, Run 2
MST2/STK3 = biological target: T1, MST2/STK3 (Homo sapiens, UniProt Q13188); settings: 1 μM; Run 1, Run 2
T1 sequence (Q13188 1-491): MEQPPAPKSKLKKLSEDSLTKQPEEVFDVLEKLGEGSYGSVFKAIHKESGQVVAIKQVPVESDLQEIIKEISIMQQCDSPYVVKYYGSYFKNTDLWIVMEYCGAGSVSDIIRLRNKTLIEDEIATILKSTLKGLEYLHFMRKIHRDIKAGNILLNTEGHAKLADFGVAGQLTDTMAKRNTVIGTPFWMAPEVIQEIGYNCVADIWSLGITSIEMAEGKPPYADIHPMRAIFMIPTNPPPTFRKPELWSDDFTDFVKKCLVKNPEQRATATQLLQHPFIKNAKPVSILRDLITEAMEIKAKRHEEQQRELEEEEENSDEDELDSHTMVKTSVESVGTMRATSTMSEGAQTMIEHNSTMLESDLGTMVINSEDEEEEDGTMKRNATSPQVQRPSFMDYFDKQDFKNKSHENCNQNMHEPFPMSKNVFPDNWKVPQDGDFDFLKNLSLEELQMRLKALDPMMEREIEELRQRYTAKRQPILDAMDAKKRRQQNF

MYO3b = biological target: T2, MYO3b (Homo sapiens, UniProt Q8WXR4); settings: 1 μM; Run 1, Run 2
T2 sequence (Q8WXR4 1-1341): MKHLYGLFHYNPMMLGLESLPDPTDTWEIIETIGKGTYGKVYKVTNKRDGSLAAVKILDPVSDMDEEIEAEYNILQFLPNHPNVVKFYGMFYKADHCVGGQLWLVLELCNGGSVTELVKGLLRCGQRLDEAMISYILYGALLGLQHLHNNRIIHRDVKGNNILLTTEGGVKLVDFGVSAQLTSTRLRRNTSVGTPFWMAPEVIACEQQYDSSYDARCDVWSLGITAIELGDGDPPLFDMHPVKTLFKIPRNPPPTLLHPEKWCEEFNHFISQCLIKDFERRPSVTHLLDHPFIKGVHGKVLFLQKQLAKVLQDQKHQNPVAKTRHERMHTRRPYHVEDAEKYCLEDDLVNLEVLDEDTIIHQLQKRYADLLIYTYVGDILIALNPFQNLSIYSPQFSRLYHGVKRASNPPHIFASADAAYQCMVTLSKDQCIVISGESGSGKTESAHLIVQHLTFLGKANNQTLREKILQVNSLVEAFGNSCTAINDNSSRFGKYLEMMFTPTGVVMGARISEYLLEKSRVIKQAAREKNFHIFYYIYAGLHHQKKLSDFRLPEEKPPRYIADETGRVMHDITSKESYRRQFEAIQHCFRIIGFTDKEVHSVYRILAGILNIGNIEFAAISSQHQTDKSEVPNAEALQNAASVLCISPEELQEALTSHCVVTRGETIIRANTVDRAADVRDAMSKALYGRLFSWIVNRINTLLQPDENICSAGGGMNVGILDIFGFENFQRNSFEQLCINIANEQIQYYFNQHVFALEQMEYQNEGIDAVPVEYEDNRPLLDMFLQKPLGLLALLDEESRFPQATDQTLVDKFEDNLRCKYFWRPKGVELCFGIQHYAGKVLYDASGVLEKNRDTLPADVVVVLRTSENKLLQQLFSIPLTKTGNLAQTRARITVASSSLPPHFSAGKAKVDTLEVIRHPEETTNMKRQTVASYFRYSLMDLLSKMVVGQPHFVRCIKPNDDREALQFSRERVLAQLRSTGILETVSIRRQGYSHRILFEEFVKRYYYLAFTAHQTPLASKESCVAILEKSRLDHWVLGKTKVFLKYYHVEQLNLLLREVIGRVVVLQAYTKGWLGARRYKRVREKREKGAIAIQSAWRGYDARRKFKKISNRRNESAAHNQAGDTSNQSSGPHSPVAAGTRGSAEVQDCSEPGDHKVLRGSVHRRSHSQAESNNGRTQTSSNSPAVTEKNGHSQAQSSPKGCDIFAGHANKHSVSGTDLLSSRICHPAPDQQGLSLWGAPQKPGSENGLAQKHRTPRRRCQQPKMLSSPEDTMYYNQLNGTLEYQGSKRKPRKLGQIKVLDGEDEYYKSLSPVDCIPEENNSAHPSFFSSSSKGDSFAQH

NEK9 = biological target: T3, NEK9 (Homo sapiens, UniProt Q8TD19); experiment: biochemical; settings: read-out: % enzyme activity, 1 μM; Run 1, Run 2
T3 sequence (Q8TD19 1-979): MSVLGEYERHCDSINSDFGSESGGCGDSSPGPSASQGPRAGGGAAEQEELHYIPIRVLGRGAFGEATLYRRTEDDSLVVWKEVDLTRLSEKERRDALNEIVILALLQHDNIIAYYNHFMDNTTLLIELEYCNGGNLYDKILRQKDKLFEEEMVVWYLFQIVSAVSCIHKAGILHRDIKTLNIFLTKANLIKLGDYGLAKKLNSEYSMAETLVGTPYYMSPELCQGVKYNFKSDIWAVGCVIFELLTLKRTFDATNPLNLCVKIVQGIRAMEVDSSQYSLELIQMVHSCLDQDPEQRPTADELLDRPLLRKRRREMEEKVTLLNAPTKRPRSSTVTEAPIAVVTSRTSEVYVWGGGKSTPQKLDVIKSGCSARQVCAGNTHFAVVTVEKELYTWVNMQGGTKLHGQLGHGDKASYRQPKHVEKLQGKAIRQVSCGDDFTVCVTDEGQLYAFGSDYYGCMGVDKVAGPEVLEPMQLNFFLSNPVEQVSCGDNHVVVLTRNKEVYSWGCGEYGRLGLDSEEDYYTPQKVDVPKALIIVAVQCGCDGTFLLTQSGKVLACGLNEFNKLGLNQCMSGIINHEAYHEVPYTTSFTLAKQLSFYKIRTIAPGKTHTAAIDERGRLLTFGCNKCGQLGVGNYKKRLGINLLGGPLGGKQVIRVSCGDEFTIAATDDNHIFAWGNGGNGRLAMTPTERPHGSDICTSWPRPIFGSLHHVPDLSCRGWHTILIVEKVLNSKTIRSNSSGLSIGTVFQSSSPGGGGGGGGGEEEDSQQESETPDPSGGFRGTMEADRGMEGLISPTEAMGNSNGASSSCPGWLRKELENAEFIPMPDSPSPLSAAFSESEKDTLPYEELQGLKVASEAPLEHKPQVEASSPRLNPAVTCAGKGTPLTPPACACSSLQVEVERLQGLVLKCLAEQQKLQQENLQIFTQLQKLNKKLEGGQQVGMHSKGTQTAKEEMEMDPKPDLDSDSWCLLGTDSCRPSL

Chain of CDK16/cyclin Y (PCTAIRE) (Q00536 whole entry): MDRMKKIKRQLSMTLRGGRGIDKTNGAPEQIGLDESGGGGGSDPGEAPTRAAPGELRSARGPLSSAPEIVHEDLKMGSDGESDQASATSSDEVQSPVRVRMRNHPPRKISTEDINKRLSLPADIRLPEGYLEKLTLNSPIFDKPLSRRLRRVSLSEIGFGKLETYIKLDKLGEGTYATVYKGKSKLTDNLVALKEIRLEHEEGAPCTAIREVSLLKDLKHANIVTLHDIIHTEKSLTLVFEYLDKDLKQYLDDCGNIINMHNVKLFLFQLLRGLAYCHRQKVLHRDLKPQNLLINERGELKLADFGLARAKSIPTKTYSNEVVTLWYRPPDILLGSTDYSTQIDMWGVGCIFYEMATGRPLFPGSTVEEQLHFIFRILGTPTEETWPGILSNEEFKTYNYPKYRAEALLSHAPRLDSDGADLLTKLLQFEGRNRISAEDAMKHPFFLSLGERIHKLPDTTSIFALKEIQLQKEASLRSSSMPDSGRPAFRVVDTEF
Chain of CDK16/cyclin Y (PCTAIRE) (Q8ND76 whole entry partner): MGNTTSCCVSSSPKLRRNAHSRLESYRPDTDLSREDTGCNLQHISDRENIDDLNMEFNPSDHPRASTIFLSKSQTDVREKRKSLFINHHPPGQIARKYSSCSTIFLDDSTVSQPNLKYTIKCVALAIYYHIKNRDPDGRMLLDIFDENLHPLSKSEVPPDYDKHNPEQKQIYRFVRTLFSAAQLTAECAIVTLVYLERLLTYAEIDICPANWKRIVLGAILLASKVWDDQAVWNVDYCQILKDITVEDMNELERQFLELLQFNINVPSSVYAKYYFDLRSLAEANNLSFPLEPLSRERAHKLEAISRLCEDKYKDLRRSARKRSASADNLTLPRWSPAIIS
Chain of ACK1 (Q07912 whole entry): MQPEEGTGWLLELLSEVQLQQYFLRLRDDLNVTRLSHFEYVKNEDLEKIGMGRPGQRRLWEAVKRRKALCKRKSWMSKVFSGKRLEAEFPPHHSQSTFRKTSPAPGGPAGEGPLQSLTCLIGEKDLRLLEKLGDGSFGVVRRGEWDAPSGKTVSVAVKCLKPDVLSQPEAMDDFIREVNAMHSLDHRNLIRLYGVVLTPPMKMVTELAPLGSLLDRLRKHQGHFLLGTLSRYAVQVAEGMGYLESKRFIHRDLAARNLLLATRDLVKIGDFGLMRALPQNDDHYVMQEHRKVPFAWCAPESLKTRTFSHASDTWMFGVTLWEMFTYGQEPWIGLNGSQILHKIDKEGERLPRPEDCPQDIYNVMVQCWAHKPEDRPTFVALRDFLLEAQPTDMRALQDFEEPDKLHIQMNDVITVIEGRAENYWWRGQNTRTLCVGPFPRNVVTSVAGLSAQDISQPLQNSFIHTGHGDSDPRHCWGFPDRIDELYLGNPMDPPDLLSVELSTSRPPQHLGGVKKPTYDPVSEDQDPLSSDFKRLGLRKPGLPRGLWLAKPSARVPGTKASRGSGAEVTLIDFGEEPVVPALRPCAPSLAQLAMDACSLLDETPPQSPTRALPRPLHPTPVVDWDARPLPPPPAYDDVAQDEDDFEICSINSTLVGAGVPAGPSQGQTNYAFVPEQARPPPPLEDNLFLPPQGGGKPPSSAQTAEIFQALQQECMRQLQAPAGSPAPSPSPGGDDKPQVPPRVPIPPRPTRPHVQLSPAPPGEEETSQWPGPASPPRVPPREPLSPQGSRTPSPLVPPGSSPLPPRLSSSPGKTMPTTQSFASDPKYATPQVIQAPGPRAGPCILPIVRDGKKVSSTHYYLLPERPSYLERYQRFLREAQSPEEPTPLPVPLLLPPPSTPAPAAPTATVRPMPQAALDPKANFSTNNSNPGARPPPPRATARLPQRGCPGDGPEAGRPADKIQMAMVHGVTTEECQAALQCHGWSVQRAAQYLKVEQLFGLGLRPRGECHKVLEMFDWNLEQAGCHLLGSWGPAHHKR
Chain of CDK1/cyclin B (P06493 whole entry): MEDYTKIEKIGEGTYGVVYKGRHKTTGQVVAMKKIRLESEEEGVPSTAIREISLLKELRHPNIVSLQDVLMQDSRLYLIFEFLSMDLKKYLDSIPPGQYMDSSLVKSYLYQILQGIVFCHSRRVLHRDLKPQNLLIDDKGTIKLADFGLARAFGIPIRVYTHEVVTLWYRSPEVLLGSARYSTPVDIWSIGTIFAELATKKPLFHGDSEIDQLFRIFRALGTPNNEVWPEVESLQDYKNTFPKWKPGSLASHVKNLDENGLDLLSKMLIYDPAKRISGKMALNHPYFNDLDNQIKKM
Chain of CDK1/cyclin B (P14635 whole entry partner): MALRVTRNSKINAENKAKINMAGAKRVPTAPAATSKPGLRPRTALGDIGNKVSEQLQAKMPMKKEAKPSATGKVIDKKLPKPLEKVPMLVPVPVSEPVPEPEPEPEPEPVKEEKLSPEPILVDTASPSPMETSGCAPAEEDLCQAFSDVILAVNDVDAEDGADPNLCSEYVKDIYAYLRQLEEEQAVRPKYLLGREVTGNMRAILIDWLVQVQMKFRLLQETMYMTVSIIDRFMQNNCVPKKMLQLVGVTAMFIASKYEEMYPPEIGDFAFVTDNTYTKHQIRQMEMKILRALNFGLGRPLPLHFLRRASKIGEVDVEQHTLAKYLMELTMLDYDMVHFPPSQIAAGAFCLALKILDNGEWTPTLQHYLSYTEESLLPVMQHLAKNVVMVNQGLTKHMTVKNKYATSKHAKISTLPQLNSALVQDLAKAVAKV

SMILES | % enzyme activity at 1 μM (FMS) | % enzyme activity (ACK1) | % enzyme activity (CDK1/cyclin B) | % enzyme activity (CDK16/cyclin Y (PCTAIRE)) | % enzyme activity (MST2/STK3) | % enzyme activity (MYO3b) | remaining activity at 1 µM (NEK9)
COc1cc(-c2cncc(-c3ccc(N4CCN(C)CC4)cc3)c2C)cc(F)c1C(N)=O [Compound 26a, 2-Fluoro-6-methoxy-4-(4-methyl-5-(4-(4-methylpiperazin-1-yl)phenyl)pyridin-3-yl)benzamide] | 82.2% and 75.7% | 65.46% | 92.35% | 93.35% | 93.91% | 81.31% | 91.2%
COc1cc(-c2cncc(-c3ccc(N4C[C@@H](C)N(C)[C@@H](C)C4)cc3)c2C)cc(F)c1C(N)=O [Compound 26c, 2-Fluoro-6-methoxy-4-(4-methyl-5-(4-((3R,5S)-3,4,5-trimethylpiperazin-1-yl)phenyl)pyridin-3-yl)benzamide] | 79.5% and 78.8% | 76.07% | 91.98% | 92.26% | 100.46% | 85.13% | 91.6%
